Test results as given in paper PMC11241769, “Comprehensive Characterization of Phytochemical Composition, Membrane Permeability, and Antiproliferative Activity of Juglans nigra Polyphenols” (International Journal of Molecular Sciences, 2024).
Like-named read-outs stand apart in the source and are kept apart here.

How the values were obtained:
[1] = test system: MDA-MB-231 human breast adenocarcinoma cells; test: in vitro cytostatic (antiproliferative) activity, Alamar Blue (resazurin) assay, MDA-MB 231; type: cell-based
Protocol: (§1) For the evaluation of the in vitro antiproliferative activity of the compounds, the cell viability was determined by resazurin (Alamar Blue) assay on MDA-MB 231 breast carcinoma, A2058 melanoma, and HT-29 colon carcinoma cell culture. The control wells were treated only with serum-free medium.
(§2) The cytostatic effect of the compounds was studied on tumor cell cultures in vitro. MDA-MB-231 human breast adenocarcinoma cells were cultured in DMEM medium supplemented with 10% FBS, 2 mM L-glutamine, penicillin–streptomycin antibiotics mixture (50 IU/mL, and 50 μg/mL, respectively), 1 mM sodium pyruvate, and 1% non-essential amino acid mixture. A2058 human melanoma cells, and HT-29 colorectal carcinoma cells were cultured in RPMI medium supplemented with 10% FBS, 2 mM L-glutamine, and penicillin–streptomycin antibiotics mixture (50 IU/mL and 50 μg/mL, respectively). Cell lines were generous gifts from Dr. József Tóvári (Department of Experimental Pharmacology, National Institute of Oncology, Budapest, Hungary).
(§3) All cell cultures were maintained at 37 °C in a humidified atmosphere with 5% CO2. The cells were grown to confluence and then divided into 96-well tissue culture plates with the initial cell number of 5.0 × 10^3 cells/well. […] Control cells were treated with serum-free medium or DMSO (c = 1.0 v/v %) at the same conditions. After this incubation period, cells were washed twice with serum-free medium, and following that, they were cultured for another 72 h in a 10% serum-containing medium at 37 °C. After that, cell viability was determined using the Alamar Blue assay. Alamar Blue is a non-toxic, resazurin-based dye that living cells reduce to a fluorescent molecule, resorufin [99]. Resazurin sodium salt (Merck, Darmstadt, Germany) was dissolved in PBS at c = 0.15 mg/mL, pH 7.4). A measure of 22 uL of the dye was added to each well and incubated at 37 °C for 3 h until the pink color of the reduced dye appeared. Fluorescence intensity in each well was measured using a Synergy H4 multimode microplate reader (BioTek, Winooski, VT); at λex = 530/30 and λem = 610/10 nm.
(§4) The cytostasis values were expressed in the percentage of untreated control.

[2] = PAMPA-BBB (parallel artificial membrane permeability assay, porcine polar brain lipid extract); type: in vitro ADME; details: for logPe PAMPA-BBB (n = 9): donor pH 7.4, acceptor pH 7.4, 37 °C, 4 h, n.d. = not detected in the acceptor phase; for Papp at 4 h, 100 µM: pig, PAMPA, pH 7.4, read-out: logPe PAMPA-BBB (n = 9) (converted)
Protocol: (§5) For the PAMPA-BBB test, 5 μL of porcine polar brain lipid extract (PBLE) solution (16.0 mg PBLE + 8.0 mg cholesterol dissolved in 600.0 μL n-dodecane) was applied for each well of the 96-well polycarbonate-based filter donor plates (top plate) (Multiscreen™-IP, MAIPN4510, pore size 0.45 μm; Merck). For the PAMPA-GI assay, the wells of the top plate were coated with 5 μL of the mixture of 16.0 mg phosphatidylcholine + 8.0 mg cholesterol dissolved in 600.0 μL n-dodecane. A measure of 150.0 μL of aliquots of the filtrated donor solutions were placed on the membrane. The 96-well PTFE acceptor plates (bottom plates) (Multiscreen Acceptor Plate, MSSACCEPTOR; Merck), were filled with 300.0 μL buffer solution (0.01 M PBS buffer, pH 7.4). The donor plate was placed upon the acceptor plate, and both plates were incubated together at 37 °C for 4 h in a Heidolph Titramax 1000 Vibrating platform shaker (Heidolph, Schwabach, Germany).
(§6) After incubation, sandwich plates were separated and the concentrations of each compound in the starting donor solution and in the acceptor and donor wells were determined in triplicate by UHPLC-DAD method described above. […] The effective permeability and the membrane retention in the PAMPA-BBB and the PAMPA GI experiments were calculated by Equations (4)–(7), respectively:(4) Pe=−2.303/A(t−τSS)·VA·VD/VA+VD·lg1−VA+VD/1−MR·VD×CAt/CD0 (5) Pe=−2.303/A(t−τSS)·1/1+ra·lg−ra+1+ra/1−MR×CDt/CD0 where Pe is the effective permeability coefficient (cm/s), A is the filter area (0.24 cm^2), VD and VA are the volumes in the donor (0.15 cm^3) and acceptor phases (0.30 cm^3), t is the incubation time (s), τSS is the time (s) to reach steady-state (240 s), CD(t) is the concentration (mol/cm^3) of the compound in the donor phase at time t, CD(0) is the concentration (mol/cm^3) of the compound in the donor phase at time 0, and MR is the estimated membrane retention factor (the estimated mole fraction of solute lost to the membrane), ra is the sink asymmetry ratio (gradient-pH-induced), defined as:(6) ra=VD/VA×Pe(A→D)/Pe(D→A) (7) MR=1−CDt/CD0−VA/VDCAt/CD0
(§7) All experiments were performed in three triplicates on three consecutive days (n = 9), caffeine standard was used as positive, while rutin as negative control. ClogP values were calculated by ChemAxon Marvin 22.3.

[3] = test system: HT-29 colorectal carcinoma cells; test: in vitro cytostatic (antiproliferative) activity, Alamar Blue (resazurin) assay, HT-29; type: cell-based; details: Homo sapiens
Protocol: as §1, §2, §3, §4

[4] = test system: A2058 human melanoma cells; test: in vitro cytostatic (antiproliferative) activity, Alamar Blue (resazurin) assay, A2058; type: cell-based
Protocol: as §1, §2, §3, §4

[5] = PAMPA-GI (parallel artificial membrane permeability assay, phosphatidylcholine membrane); type: in vitro ADME; details: for logPe PAMPA-GI (n = 9): donor pH 6.8, acceptor pH 7.4, 37 °C, 4 h, n.d. = not detected in the acceptor phase; for Papp at 4 h, 100 µM: PAMPA, read-out: logPe PAMPA-GI (n = 9) (converted)
Protocol: as §5, §6, §7

[6] = test system: Vero E6 non-tumorous kidney cells; test: selectivity study: cytostatic activity on non-tumorous Vero E6 cells, Alamar Blue assay; type: cell-based, African green monkey (C. sabaeus)
Protocol: (§8) To determine the selectivity, we assessed the compounds on the Vero E6 non-tumorous kidney cells from African green monkeys (C. sabaeus), and their cytostatic activity was determined (Table 3).
(§9) For the selectivity study, a non-human primate cell culture was used. Vero E6 cells were established from kidney tissue sampled from an African green monkey (C. sabaeus) They originated from a primary culture initiated in March 1962 by Yoshihiro Yasumura at Chiba University in Japan. Vero E6 cells were obtained from the European Collection of Authenticated Cell Cultures (ECACC 85020206) and maintained in DMEM high-glucose (4.5 g/L) medium (Lonza, Basel, Switzerland) containing 10% FBS (Gibco, Thermo Fisher Scientific) and supplemented with 2 mM of L-glutamine (Lonza), 1 mM sodium pyruvate (Merck), and CellCultureGuard (PanReacApplichem, ITW Reagents, Darmstadt, Germany) at 37 °C in a humidified atmosphere of 5% CO2.
as §3, §4

[7] = chemical stability in the aqueous solutions/buffer of the PAMPA experiments (UHPLC-DAD); details: PAMPA, 100 µM
Protocol: Quantities of the isolated compounds in the PAMPA experiments (14, 58, 74, 86, 92, 106, 141, and 143) were determined by UHPLC-DAD. The Juglans extracts were analyzed by an ACQUITY UPLC H-Class PLUS System equipped with a quaternary solvent delivery pump (QSM), an auto-sampler manager (FTN), a column compartment (CM), and a photodiode array (PDA) detector (Waters Corporation). An Acquity BEH C18 column (100 × 2.1 mm i.d., 1.7 µm; Waters Corporation) maintained at 30 °C was used as stationary phase. Eluent A was 0.3% acetic acid in water and eluent B was acetonitrile, the following gradient elution was applied (flow rate: 0.3 mL/min): 5.0–100.0% B (0.0–11.0 min), 100.0–5.0% B (11.0–11.5 min), 5% B (11.5–15.0 min). The injection volume was 5 µL and chromatograms were recorded at 200–400 nm. The chromatograms acquired at the UV absorption maxima of each compound were used for data evaluation.
Stock solutions (10 mM in methanol) were diluted with the defined buffer (pH 7.4 for the PAMPA-BBB and pH 6.8 for the PAMPA-GI assays) to obtain the donor solutions (composition: 594.0 μL buffer + 6.0 μL stock solution). The buffers were prepared as follows: pH = 6.8: 20.2 g Na2HPO4 ∙ 7H2O and 3.4 g NaH2PO4 ∙ H2O dissolved in distilled water to achieve the final volume of 1000.0 mL, pH adjustment with 0.5 M NaOH or 0.5 M HCl; pH = 7.4: one PBS tablet (Phosphate Buffered Saline, pH 7.4; Sigma Aldrich) dissolved in 200.0 mL distilled water. Donor solutions were filtered through Phenex-RC 15 mm, 0.2 μm syringe filters (Gen-Lab Ltd., Budapest, Hungary).

[8] = test system: MDA-MB 231, A2058, HT-29 and Vero E6 cells; test: in vitro cytostasis, Alamar Blue assay, cell lines taken together; type: cell-based; details: for effect on the tumor cell lines: tumor cell lines (MDA-MB 231, A2058, HT-29)
Protocol: as §1, §8, §2, §9, §3, §4

[9] = in vitro cytostatic activity, Alamar Blue (resazurin) assay, MDA-MB 231 breast carcinoma cell culture, read-out: IC50 (µM) MDA-MB 231
[10] = in vitro cytostatic activity, Alamar Blue (resazurin) assay, HT-29 colon carcinoma cell culture, read-out: IC50 (µM) HT-29
[11] = in vitro cytostatic activity, Alamar Blue (resazurin) assay, A2058 melanoma cell culture, read-out: IC50 (µM) A2058
[12] = Chlorocebus sabaeus, Vero C1008, in vitro cytostatic activity, Alamar Blue assay, Vero E6 non-tumorous kidney cells, read-out: IC50 (µM) VERO E6 Non Tumorous
[13] = MDA-MB-231, read-out: IC50 (µM) MDA-MB 231
[14] = HT-29, read-out: IC50 (µM) HT-29
[15] = A2058, read-out: IC50 (µM) A2058
[16] = Chlorocebus sabaeus, Vero C1008, read-out: IC50 (µM) VERO E6 Non Tumorous

IC50 [1, 9] [µM] | IC50 [3, 10] [µM] | IC50 [4, 11] [µM] | Compound | logPe PAMPA-BBB (n = 9) [2] | logPe PAMPA-GI (n = 9) [5] | IC50 [6, 12] [µM] | effect on the tumor cell lines [8] | further results
> 100 | > 100 | 102.5 ± 0.7 | CCOC(=O)c1cc(O)c(O)c(O)c1 [Compound 58, ethyl gallate] | – | – | 82.1 ± 5.7 | – | Papp at 4 h, 100 µM [2]: 1.7 ×10⁻⁶ cm/s; inhibition at 100 µM ([4]; read-out: % inhibition at 100 µM, 100 µM, A2058 cell culture): 56.4%; Papp at 4 h, 100 µM [5]: 3.72 ×10⁻⁶ cm/s; additional minor compounds appeared in the aqueous solutions prepared for the PAMPA experiments [7]: < 5%
> 100 | > 100 | > 100 | O=C(OCC1OC(OC2CCC(=O)c3ccc(O)c(O)c32)C(O)C(O)C1O)c1cc(O)c(O)c(O)c1 [Compound 92, 1,2,3,4-tetrahydro-7,8-dihydroxy-4-oxonaphthalen-1-yl-6-O-[(3,4,5-trihydroxyphenyl)carbonyl]-β-D-glucopyranoside] | not detected in the acceptor phase | not detected in the acceptor phase | 61.1 ± 5.3 | no effect | –
– | – | – | CC1OC(Oc2c(-c3ccc(O)c(O)c3)oc3cc(O)cc(O)c3c2=O)C(O)C(O)C1O (stereo not shown) [Compound 106, quercetin-3-O-rhamnoside (quercitrin)] | not detected in the acceptor phase | not detected in the acceptor phase | – | no effect | IC50 ([6]; Chlorocebus sabaeus, Vero C1008, read-out: IC50 (cytostatic activity) on the Vero E6 cells): 15.9 µM
> 100 | > 100 | > 100 | O=c1oc2c(O)c(O)cc3c(=O)oc4c(O)c(O)cc1c4c23 [Compound 143, ellagic acid] | less than −6.0 | less than −6.0 | > 100 | – | Papp at 4 h, 100 µM [2]: 0.224 ×10⁻⁶ cm/s; inhibition at 100 µM ([3]; read-out: % inhibition at 100 µM, 100 µM, HT-29 cell culture): 33%; IC50 ([3]; HT-29 colon carcinoma, treatment overnight, then 72 h culture, Alamar Blue, read-out: IC50 on HT-29 cell culture): 12.1 µM; Papp at 4 h, 100 µM [5]: 0.741 ×10⁻⁶ cm/s; IC50 (cytostatic activity) on the Vero E6 cells ([6]; Vero E6 non-tumorous kidney cells, selectivity): not cytostatic
– | – | – | COc1cccc2c1C(=O)c1c(O)c3c(c(O)c1C2=O)C[C@@](O)(C(C)=O)C[C@@H]3O[C@H]1C[C@H](N)[C@H](O)[C@H](C)O1 [Daunomycin, daunomycin, reference compound] | – | – | – | – | IC50 [1, 13]: 0.7 ± 0.1 µM; IC50 ([8]; read-out: IC50 value (50% inhibition) in all cell lines): 0.2 to 1.1 µM; IC50 [3, 14]: 0.2 ± 0.05 µM; IC50 [4, 15]: 0.9 ± 0.1 µM; IC50 [6, 16]: 1.1 ± 0.05 µM
> 100 | > 100 | > 100 | CC1OC(Oc2c(-c3cc(O)c(O)c(O)c3)oc3cc(O)cc(O)c3c2=O)C(O)C(O)C1O (stereo not shown) [myricetin-3-O-rhamnoside (86)] | – | – | 3.7 ± 0.7 | – | –
– | – | – | CC1OC(Oc2c(-c3ccc(O)c(O)c3)oc3cc(O)cc(O)c3c2=O)C(O)C(O)C1O (stereo not shown) [quercetin-3-O-rhamnoside (106)] | – | – | – | – | IC50 [1, 13]: > 100 µM; IC50 [3, 14]: > 100 µM; IC50 [4, 15]: > 100 µM; IC50 [6, 16]: 15.9 ± 0.7 µM
> 100 | > 100 | > 100 | O=c1c(OC2OCC(O)C(O)C2O)c(-c2ccc(O)c(O)c2)oc2cc(O)cc(O)c12 (stereo not shown) [quercetin-3-O-xyloside (74)] | – | – | > 100 | – | –
– | – | – | myricetin-3-O-rhamnoside (myricitrin) [Compound 86] | – | – | – | no effect | IC50 ([6]; Vero E6 non-tumorous kidney cells, selectivity, read-out: IC50 (cytostatic activity) on the Vero E6 cells): 3.7 µM

Compound | IC50 [1, 9] [µM] | IC50 [3, 10] [µM] | IC50 [4, 11] [µM] | logPe PAMPA-BBB (n = 9) [2] | logPe PAMPA-GI (n = 9) [5] | IC50 [6, 12] [µM] | effect on the tumor cell lines [8] | further results
O=C(O)c1cc(O)c(O)c(O)c1 [Compound 14, gallic acid] | 49.8 ± 3.5 | 71.2 ± 7.9 | 57.2 ± 4.7 | not detected in the acceptor phase | not detected in the acceptor phase | 49.9 ± 2.8 | – | –
